Test results published in BindingDB's records for patent US20230322767 (Bayer Aktiengesellschaft, 2023).

Experiments:
[1] = molecular target: Epidermal growth factor receptor (Homo sapiens, UniProt P00533); test: WT-EGFR Kinase Assay
Procedure: For the assay 50 nl of a 100 fold concentrated solution of the test compound in DMSO was pipetted into either a black low volume 384 well microtiter plate or a black 1536 well microtiter plate (both Greiner Bio-One, Frickenhausen, Germany), 2 μL of a solution of EGFR in aqueous assay buffer [50 mM Hepes pH 7.0, 10 mM MgCl2, 1 mM dithiothreitol, 0.5 mM EGTA, 0.3 mM activated sodium ortho-vanadate, 0.005% (w/v) bovine serum albumin, 0.005% (v/v) Tween-20] were added and the mixture was incubated for 15 min at 22° C. to allow pre-binding of the test compounds to the enzyme before the start of the kinase reaction. […] The concentration of EGFR was adjusted depending of the activity of the enzyme lot and was chosen appropriate to have the assay in the linear range, typical concentration was […]. The reaction was stopped by the addition of 3 μL of a solution of HTRF detection reagents (83.3 nM streptavidine-XL665 [Cisbio Bioassays, Codolet, France] and 1.67 nM PT66-Tb-Cryptate, a terbium-cryptate labelled anti-phospho-tyrosine antibody from Cisbio Bioassays [instead of the PT66-Tb-cryptate PT66-Eu-Chelate from Perkin Elmer can also be used]) in an aqueous EDTA-solution (133.3 mM EDTA, 0.2% (w/v) bovine serum albumin in 50 mM HEPES pH 7.5).

[2] = molecular target: T1, Casein kinase I isoform alpha (Homo sapiens, UniProt P48729); test: CSNK1A1 High ATP Assay
Description: Recombinant fusion protein of N-terminal Glutathion-S-Transferase (GST) and full-length human CSNK1A1, expressed by baculovirus infected insect cells and purified via Glutathion affinity chromatography, was purchased from Life Technologies (product no. PV4174) and used as enzyme. As substrate for the kinase reaction the biotinylated peptide biotin-Ahx-KRRRAL-pS-VASLPGL (C-terminus in amide form) was used which can be purchased e.g. from the company Biosyntan (Berlin-Buch, Germany).[2164]For the assay 50 nl of a 100 fold concentrated solution of the test compound in DMSO was pipetted into a white low volume 384-well microtiter plate (Greiner Bio-One, Frickenhausen, Germany), 2 μL of a solution of CSNK1A1 in aqueous assay buffer [50 mM HEPES pH 7.5, 10% (v/v) glycerol, 10 mM MgCl2, 50 mM NaCl, 1 mM dithiothreitol, 0.01% (w/v) bovine serum albumin, 0.01% (v/v) Triton X-100] were added and the mixture was incubated for 15 min at 22° C. to allow pre-binding of the test compounds to the enzyme before the start of the kinase reaction. […] The concentration of CSNK1A1 was adjusted depending of the activity of the enzyme lot and was chosen appropriate to have the assay in the linear range, a typical concentration is about 0.4 ng/μL. The reaction was stopped by the addition of 2.5 μL of ADP-Glo-reagent (1:1.5 fold diluted with water) and the resulting mixture was incubated at 22° C. for 1 h to convert the ATP not consumed in the kinase reaction completely […]. Subsequently 2.5 μL of the kinase detection reagent (1.2 fold more concentrated than recommended by the producer) were added, the resulting mixture was incubated at 22° C. for 1 h and then the luminescence measured with a suitable measurement instrument (e.g. Viewlux™ from Perkin-Elmer). The amount of emitted light was taken as a measure for the amount of ADP generated and thereby for the activity of the CSNK1A1.

[3] = molecular target: T1, Casein kinase I isoform alpha; test: CSNK1A1 1uM ATP Assay
Procedure: The concentration of CSNK1A1 was adjusted depending of the activity of the enzyme lot and was chosen appropriate to have the assay in the linear range, a typical concentration is about 0.4 ng/μL. The reaction was stopped by the addition of 2.5 μL of ADP-Glo-reagent (1:1.5 fold diluted with water) and the resulting mixture was incubated at 22° C. for 1 h to convert the ATP not consumed in the kinase reaction completely to […]. […] The amount of emitted light was taken as a measure for the amount of ADP generated and thereby for the activity of the CSNK1A1.

[4] = molecular target: Casein kinase I isoform delta (Homo sapiens, UniProt P48730); test: CSNK1D Assay
Procedure: As substrate for the kinase reaction the biotinylated peptide Btn-Ahx-[…] […] The concentration of CSNK1D was adjusted depending of the activity of the enzyme lot and was chosen appropriate to have the assay in the linear range, a typical concentration is about 0.5 ng/μL. The reaction was stopped by the addition of 2.5 μL of “ADP-Glo-reagent” (1:1.5 fold diluted with water) and the resulting mixture was incubated at 22° C. for 1 h to convert the ATP not consumed in the kinase reaction completely to […]. […] The amount of emitted light was taken as a measure for the amount of ADP generated and thereby for the activity of the CSNK1D.

Chain of Epidermal growth factor receptor (P00533 whole entry): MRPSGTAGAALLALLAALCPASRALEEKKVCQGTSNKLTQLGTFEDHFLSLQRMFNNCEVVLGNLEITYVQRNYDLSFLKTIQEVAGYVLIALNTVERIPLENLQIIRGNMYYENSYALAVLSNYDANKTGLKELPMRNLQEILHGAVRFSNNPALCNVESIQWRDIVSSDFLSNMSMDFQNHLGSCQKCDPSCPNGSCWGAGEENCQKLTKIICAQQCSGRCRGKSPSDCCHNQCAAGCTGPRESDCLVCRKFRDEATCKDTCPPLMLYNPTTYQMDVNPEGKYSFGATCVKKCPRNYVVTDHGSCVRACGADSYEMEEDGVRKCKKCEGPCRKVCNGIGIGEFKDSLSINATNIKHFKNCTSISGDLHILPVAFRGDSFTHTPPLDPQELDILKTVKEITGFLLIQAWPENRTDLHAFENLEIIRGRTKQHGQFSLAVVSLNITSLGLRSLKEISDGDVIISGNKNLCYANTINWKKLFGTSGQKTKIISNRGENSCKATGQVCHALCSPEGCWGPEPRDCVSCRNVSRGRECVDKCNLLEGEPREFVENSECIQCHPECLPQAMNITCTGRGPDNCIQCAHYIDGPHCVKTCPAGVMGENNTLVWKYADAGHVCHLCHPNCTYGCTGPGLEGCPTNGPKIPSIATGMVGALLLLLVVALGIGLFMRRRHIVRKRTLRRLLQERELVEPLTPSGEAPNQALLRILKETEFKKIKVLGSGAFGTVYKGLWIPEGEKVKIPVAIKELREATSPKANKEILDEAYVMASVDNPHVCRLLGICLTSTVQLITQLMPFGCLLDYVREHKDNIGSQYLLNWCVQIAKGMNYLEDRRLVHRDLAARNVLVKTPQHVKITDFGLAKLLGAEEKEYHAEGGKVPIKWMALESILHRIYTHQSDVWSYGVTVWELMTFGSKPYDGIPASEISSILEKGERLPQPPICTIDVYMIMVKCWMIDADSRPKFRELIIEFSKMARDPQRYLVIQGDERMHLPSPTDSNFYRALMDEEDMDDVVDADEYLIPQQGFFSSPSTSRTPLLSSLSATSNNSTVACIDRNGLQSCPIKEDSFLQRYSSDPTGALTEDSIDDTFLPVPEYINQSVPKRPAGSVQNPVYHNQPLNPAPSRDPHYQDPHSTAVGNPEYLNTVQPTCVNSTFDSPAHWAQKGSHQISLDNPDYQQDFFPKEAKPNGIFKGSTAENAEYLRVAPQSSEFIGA
T1 sequence (P48729 whole entry, the tested form may be a part, canonical isoform): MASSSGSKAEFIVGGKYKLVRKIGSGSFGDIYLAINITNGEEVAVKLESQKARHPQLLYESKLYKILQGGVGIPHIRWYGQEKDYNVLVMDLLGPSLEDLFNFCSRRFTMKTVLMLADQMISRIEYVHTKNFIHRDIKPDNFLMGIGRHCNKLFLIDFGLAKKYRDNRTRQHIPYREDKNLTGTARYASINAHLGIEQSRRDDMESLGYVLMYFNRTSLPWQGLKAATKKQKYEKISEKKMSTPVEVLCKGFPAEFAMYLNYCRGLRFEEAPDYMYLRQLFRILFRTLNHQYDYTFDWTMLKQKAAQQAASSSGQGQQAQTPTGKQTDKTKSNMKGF
Chain of Casein kinase I isoform delta (P48730 whole entry, canonical isoform): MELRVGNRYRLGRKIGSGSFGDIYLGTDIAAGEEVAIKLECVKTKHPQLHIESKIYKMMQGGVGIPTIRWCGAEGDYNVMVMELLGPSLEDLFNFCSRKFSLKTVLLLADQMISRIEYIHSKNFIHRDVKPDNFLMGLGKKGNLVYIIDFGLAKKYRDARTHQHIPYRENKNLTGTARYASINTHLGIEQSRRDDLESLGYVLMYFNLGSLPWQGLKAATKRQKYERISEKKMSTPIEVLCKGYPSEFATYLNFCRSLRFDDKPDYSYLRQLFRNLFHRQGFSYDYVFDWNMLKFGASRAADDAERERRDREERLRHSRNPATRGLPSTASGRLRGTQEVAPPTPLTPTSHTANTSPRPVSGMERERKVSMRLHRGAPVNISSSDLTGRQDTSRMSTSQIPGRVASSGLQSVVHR

## CN1CCc2[nH]c(-c3ccnc(NC(=O)C4CC4)c3)c(Nc3ccccc3)c2C1=O
[1]
  IC50: 42.6 nM
[2]
  IC50: < 3.43 nM

## O=c1[nH]ccc2[nH]c(-c3ccncc3F)c(Nc3ccccc3)c12 [US20230322767, Example No. 16 WO 2016/120196]
[1]
  IC50: 303 nM
[2]
  IC50: 40.3 nM

## CN1CCc2[nH]c(-c3ccnc(NC(=O)[C@H]4C[C@H]4F)c3)c(Nc3ccccc3)c2C1=O (relative stereo; form 1) [US20230322767, Example No. 40 WO 2016/120196]
[1]
  IC50: 85.5 nM
[2]
  IC50: 24.1 nM

## CN1CCc2[nH]c(-c3ccnc(NC(=O)[C@H]4C[C@H]4F)c3)c(Nc3ccccc3)c2C1=O (relative stereo; form 2) [US20230322767, Example No. 25 WO 2016/120196]
[1]
  IC50: 321 nM
[2]
  IC50: 62.5 nM

## Cn1ccc2[nH]c(-c3ccnc(NC(=O)Cc4ccc(F)cc4)c3)c(-c3ccccc3)c2c1=O [US20230322767, Example 5]
[1]
  IC50: > 20000 nM
[3]
  IC50: 0.86 nM
[4]
  IC50: 2.5 nM
